From patent US20250163522A1, “METHODS FOR PRESERVING HEALTHY INTESTINAL MICROBIOME DURING GROWTH PROMOTER ADMINSTRATION” (BIOMEDIT, LLC, priority 2022, published 2025) come the findings set out here.

Like-named read-outs stand apart in the source and are kept apart here.

The format of this assay is in vivo, chickens (Gallus gallus). Here is the method:
15 cecal samples and 10 serum samples from day 35 birds were sent to metabolon (Morrisville, NC) for untargeted metabolomics analysis. These numbers of samples were sent for both the control and narasin treatments. Serum samples were selected sequentially, that is, without knowledge of bird performance or results from other analyses.
Samples were prepared using the automated MicroLab STAR® system from Hamilton Company. Samples were extracted with methanol under vigorous shaking for 2 min (Glen Mills GenoGrinder 2000) to precipitate protein and dissociate small molecules bound to protein or trapped in the precipitated protein matrix, followed by centrifugation to recover chemically diverse metabolites. The resulting extract was divided into four fractions: two for analysis by two separate reverse phase (RP)/Ultrahigh Performance Liquid Chromatography-Tandem Mass Spectroscopy (UPLC-MS/MS) methods using positive ion mode electrospray ionization (ESI), one for analysis by RP/UPLC-MS/MS using negative ion mode ESI, and one for analysis by HILIC/UPLC-MS/MS using negative ion mode ESI. Samples were placed briefly on a TurboVap® (Zymark) to remove the organic solvent. The sample extracts were stored overnight under nitrogen before preparation for analysis.
The sample extract was dried and reconstituted in solvents compatible to each of the four methods. One aliquot was analyzed using acidic positive ion conditions, chromatographically optimized for more hydrophilic compounds. In this method, the extract is gradient-eluted from a C18 column (Waters UPLC BEH C18-2.1×100 mm, 1.7 μm) using water and methanol, containing 0.05% perfluoropentanoic acid (PFPA) and 0.1% formic acid (FA). A second aliquot was also analyzed using acidic positive ion conditions but was chromatographically optimized for more hydrophobic compounds. In this method, the extract is gradient eluted from the C18 column using methanol, acetonitrile, water, 0.05% PFPA and 0.01% FA, and is operated at an overall higher organic content. A third aliquot was analyzed using basic negative ion optimized conditions using a separate dedicated C18 column. The basic extracts were gradient-eluted from the column using methanol and water, and with 6.5 mM Ammonium Bicarbonate at pH 8. The fourth aliquot was analyzed via negative ionization following elution from a HILIC column (Waters UPLC BEH Amide 2.1×150 mm, 1.7 μm) using a gradient consisting of water and acetonitrile with 10 mM Ammonium Formate, pH 10.8. The MS analysis alternates between MS and data-dependent MS^n scans using dynamic exclusion. The scan range varies slightly between methods, but covers approximately 70-1000 m/z.
UPLC-MS/MS was done using a Waters ACQUITY ultra-performance liquid chromatography (UPLC) and a Thermo Scientific Q-Exactive high resolution/accurate mass spectrometer interfaced with a heated electrospray ionization (HESI-II) source and Orbitrap mass analyzer operated at 35,000 mass resolution.
Raw data was extracted, peak-identified, and QC processed using Metabolon's hardware and software. Compounds were identified by comparison to library entries of purified standards. The library, based on authenticated standards, contains the retention time/index (RI), mass to charge ratio (m/z), and chromatographic data (including MS/MS spectral data) on all molecules present in the library. Biochemical identifications were based on three criteria: retention index within a narrow RI window of the proposed identification, accurate mass match to the library+/−10 ppm, and the MS/MS forward and reverse scores. MS/MS scores are based on a comparison of the ions present in the experimental spectrum to ions present in the library entry spectrum.
Peaks were quantified as area-under-the-curve (AUC) detector ion counts. For each identified metabolite, AUC values were rescaled by dividing by the median AUC value across all samples. […]

Setting [1] is: cecum, day 35, corrected p-value<0.05.

For `CC[C@@H](C(=O)O)[C@@H]1O[C@@H]([C@@H](C)[C@H](O)[C@H](C)C(=O)[C@H](CC)[C@H]2O[C@]3(C=C[C@@H](O)[C@]4(CC[C@@](C)([C@H]5CC[C@](O)(CC)[C@H](C)O5)O4)O3)[C@H](C)C[C@@H]2C)[C@@H](C)C[C@@H]1C` [narasin], the spermidine concentration result (cecum and serum, day 35) is “lower concentration”. Moreover, under “cecum, day 35”, the “amino acid concentrations compared to controls” value was “all 20 amino acids were found at lower concentrations” and the riboflavin concentration result is recorded as “higher concentration”. Under setting [1], the “number of metabolites at higher abundance compared to controls” value amounted to 49 and the “number of metabolites at lower abundance compared to controls” value turned out to be 78. Further, where the note is “serum, day 35”, the “number of metabolites at higher abundance compared to controls” value amounted to 4, the “number of metabolites at lower abundance compared to controls” value is listed as 93 and the “urea level compared to controls” value was “lower levels”.
